Source: PubChem BioAssay AID330 (DTP/NCI, 2004)
Where “and” joins values, the source holds several entries; their conditions need not be identical. Identical values can stand only once. Inconclusive results and toxic doses are left out. Rule for the calls: active = survival T/C of 150% or more; inactive = T/C below 125% in these data.

Tested on: P388 leukemia ip, CD2F1 mice, survival T/C
Assay: NCI In Vivo Anticancer Drug Screen. Data for tumor model P388 Leukemia (intraperitoneal) in CD2F1 (CDF1) mice
Settings: endpoint: median survival time, higher = longer survival
Outline: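 Mice carrying the transplanted tumor received test compound or vehicle. Survival was recorded in each group, and the value is the treated-group measurement divided by that of the vehicle-treated control group.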

[1] = dose: 50.0 mg/kg/injection, schedule: Q01DX009 (ip), vehicle: Klucel (hydroxypropylcellulose) (HPC)
[2] = dose: 100.0 mg/kg/injection, schedule: Q01DX009 (ip), vehicle: Klucel (hydroxypropylcellulose) (HPC)
[3] = dose: 200.0 mg/kg/injection, schedule: Q01DX009 (ip), vehicle: Klucel (hydroxypropylcellulose) (HPC)
[4] = dose: 100.0 mg/kg/injection, schedule: Q01DX009 (ip), vehicle: saline with Tween-80
[5] = dose: 200.0 mg/kg/injection, schedule: Q01DX009 (ip), vehicle: saline with Tween-80
[6] = dose: 400.0 mg/kg/injection, schedule: Q01DX009 (ip), vehicle: saline with Tween-80
[7] = dose: 60.0 mg/kg/injection, schedule: Q01DX005 (ip), vehicle: saline with Tween-80
[8] = dose: 120.0 mg/kg/injection, schedule: Q01DX005 (ip), vehicle: saline with Tween-80
[9] = dose: 240.0 mg/kg/injection, schedule: Q01DX005 (ip), vehicle: saline with Tween-80
[10] = dose: 60.0 mg/kg/injection, schedule: Q01DX005 (ip), vehicle: saline
[11] = dose: 120.0 mg/kg/injection, schedule: Q01DX005 (ip), vehicle: saline
[12] = dose: 240.0 mg/kg/injection, schedule: Q01DX005 (ip), vehicle: saline
[13] = dose: 50.0 mg/kg/injection, schedule: Q01DX009 (ip), vehicle: saline with Tween-80
[14] = dose: 50.0 mg/kg/injection, schedule: Q01DX009 (ip), vehicle: saline
[15] = dose: 100.0 mg/kg/injection, schedule: Q01DX009 (ip), vehicle: saline
[16] = dose: 100.0 mg/kg/injection, schedule: Q04DX002 (ip), vehicle: saline with Tween-80

Measured: T/C

CC(/C=C/c1ccc(C)cc1)=N\NC(N)=S
inactive: dose: 1.5 mg/kg/injection, schedule: Q01DX005 (ip), vehicle: Klucel + Tween-80 99 % of control | dose: 3.0 mg/kg/injection, schedule: Q01DX005 (ip), vehicle: Klucel + Tween-80 105 % of control | dose: 6.0 mg/kg/injection, schedule: Q01DX005 (ip), vehicle: Klucel + Tween-80 105 % of control | dose: 6.0 mg/kg/injection, schedule: Q01DX005 (ip), vehicle: saline 112 % of control

CCCCCCC(C(=O)OCC)P(=O)(OCC)OCC (configuration not stated)
inactive: dose: 18.75 mg/kg/injection, schedule: Q01DX009 (ip), vehicle: saline sonified 90 % of control | dose: 37.5 mg/kg/injection, schedule: Q01DX009 (ip), vehicle: saline sonified 95 % of control | dose: 75.0 mg/kg/injection, schedule: Q01DX009 (ip), vehicle: saline sonified 100 % of control

S=C(Nc1ccc(Cl)c(Cl)c1)Nc1ccccc1SCc1cc(Cl)cc2c1OCOC2
inactive: [1] 96 % of control | [2] 88 % of control | [3] 98 % of control

O=C(C1=CCCCC1)c1ccc(-c2ccccc2)cc1
inactive: [4] 100 % of control | [5] 100 % of control | [6] 100 % of control

C=C(C)C(O)C#CCO[Si](c1ccccc1)(c1ccccc1)C(C)(C)C (configuration not stated)
inactive: [7] 95 % of control | [8] 97 % of control | [9] 98 % of control

C[n+]1ccc(-c2nc(-c3cc[n+](C)cc3)nc(-c3cc[n+](C)cc3)n2)cc1
inactive: dose: 25.0 mg/kg/injection, schedule: Q01DX001 (ip), vehicle: saline with Tween-80 102 % of control | dose: 50.0 mg/kg/injection, schedule: Q01DX001 (ip), vehicle: saline with Tween-80 99 % of control | dose: 100.0 mg/kg/injection, schedule: Q01DX001 (ip), vehicle: saline with Tween-80 108 % of control

CCOC(=O)C(C)(CCC(C)=O)C(=O)OCC
inactive: [10] 100 % of control | [11] 99 % of control | [12] 108 % of control

COc1cc2c(cc1OC)-c1c(C)c3ccc(OC)c(NCCO)c3c[n+]1CC2
inactive: dose: 50.0 mg/kg/injection, schedule: Q04DX003 (ip), vehicle: water 102 % of control | dose: 100.0 mg/kg/injection, schedule: Q04DX003 (ip), vehicle: water 107 % of control

CSc1ccc(NC(=O)ON2C(=O)c3ccccc3C2=O)cc1
inactive: dose: 6.25 mg/kg/injection, schedule: Q01DX009 (ip), vehicle: saline with Tween-80 119 % of control | dose: 12.5 mg/kg/injection, schedule: Q01DX009 (ip), vehicle: saline with Tween-80 110 % of control | dose: 25.0 mg/kg/injection, schedule: Q01DX009 (ip), vehicle: saline with Tween-80 112 % of control | [13] 119 % of control

CC(C(/C=N/NC(N)=S)=N/NC(N)=S)N1C(=O)c2ccccc2C1=O (configuration not stated)
inactive: [7] 97 % of control | [8] 94 % of control | [9] 88 % of control

O=C(Nc1ccc(Cl)c(C(F)(F)F)c1)Nc1c(Oc2ccc(Cl)c(Cl)c2)ccc(Cl)c1S(=O)(=O)O
inactive: dose: 25.0 mg/kg/injection, schedule: Q01DX009 (ip), vehicle: saline 118 % of control | [14] 118 % of control | [15] 118 % of control

CC1(C)OC(=O)C(C)(C2(O)C=CCCC2)O1 (configuration not stated)
inactive: dose: 100.0 mg/kg/injection, schedule: Q01DX001 (ip), vehicle: Klucel (hydroxypropylcellulose) (HPC) 102 % of control | dose: 200.0 mg/kg/injection, schedule: Q01DX001 (ip), vehicle: Klucel (hydroxypropylcellulose) (HPC) 102 % of control | dose: 400.0 mg/kg/injection, schedule: Q01DX001 (ip), vehicle: Klucel (hydroxypropylcellulose) (HPC) 101 % of control

CC(=O)Nc1cccc2nc(-c3ccccn3)n(CCc3ccccn3)c12
inactive: dose: 25.0 mg/kg/injection, schedule: Q01DX005 (ip), vehicle: Klucel (hydroxypropylcellulose) (HPC) 105 % of control | dose: 50.0 mg/kg/injection, schedule: Q01DX005 (ip), vehicle: Klucel (hydroxypropylcellulose) (HPC) 102 % of control | dose: 100.0 mg/kg/injection, schedule: Q01DX005 (ip), vehicle: Klucel (hydroxypropylcellulose) (HPC) 103 % of control | dose: 200.0 mg/kg/injection, schedule: Q01DX005 (ip), vehicle: Klucel (hydroxypropylcellulose) (HPC) 109 % of control

Cc1ccc(S(=O)(=O)C(Sc2ccccc2)=S=NC23CC4CC(CC(C4)C2)C3)cc1
inactive: [14] 100 % of control | [15] 108 % of control | dose: 200.0 mg/kg/injection, schedule: Q01DX009 (ip), vehicle: saline 97 % of control

c1ccc(CSC2=NCCCC2)cc1
inactive: [16] 98 % of control | dose: 200.0 mg/kg/injection, schedule: Q04DX002 (ip), vehicle: saline with Tween-80 105 % of control | dose: 400.0 mg/kg/injection, schedule: Q04DX002 (ip), vehicle: saline with Tween-80 100 % of control

CS(=O)(=O)OCCCCO
inactive: [4] 100 % of control | dose: 100.0 mg/kg/injection, schedule: Q04DX003 (ip), vehicle: saline with Tween-80 100 % of control | [5] 110 % of control | dose: 200.0 mg/kg/injection, schedule: Q04DX003 (ip), vehicle: saline with Tween-80 100 % of control | [6] 110 % of control | dose: 400.0 mg/kg/injection, schedule: Q04DX003 (ip), vehicle: saline with Tween-80 91 % of control

O=C1OC2CC13Cc1ccccc1C3(C(=O)O)CC2I (configuration not stated)
inactive: [7] 104 % of control | [8] 106 % of control | [9] 100 % of control

NN=C(c1ccc(Br)cc1)c1ccc(Br)cc1
inactive: dose: 25.0 mg/kg/injection, schedule: Q04DX002 (ip), vehicle: saline with Tween-80 100 % of control | dose: 50.0 mg/kg/injection, schedule: Q04DX002 (ip), vehicle: saline with Tween-80 101 % of control | [16] 100 % of control and 105 % of control

O=C(c1ccncc1)c1cccc(Cl)c1
inactive: [13] 103 % of control | [4] 108 % of control | [5] 104 % of control

O=C1CCC(O)N1CN1C(=O)CCC1O (configuration not stated)
inactive: [10] 100 % of control | [11] 108 % of control | [12] 100 % of control

COc1ccc(-c2cc(-c3ccccc3)[nH]c(=O)c2N(C)C)cc1
inactive: dose: 25.0 mg/kg/injection, schedule: Q01DX009 (ip), vehicle: Klucel (hydroxypropylcellulose) (HPC) 90 % of control | [1] 89 % of control | [2] 89 % of control | [3] 86 % of control

CCC[C@@H]1C[C@@H](OC(=S)SC)C[C@H]2CCC(=O)N12
inactive: dose: 50.0 mg/kg/injection, schedule: Q01DX005 (ip), vehicle: Klucel + Tween-80 102 % of control | dose: 100.0 mg/kg/injection, schedule: Q01DX005 (ip), vehicle: Klucel + Tween-80 93 % of control | dose: 200.0 mg/kg/injection, schedule: Q01DX005 (ip), vehicle: Klucel + Tween-80 107 % of control

O=C1C(N=Nc2ccccc2)Sc2nc3ccccc3n21 (configuration not stated)
inactive: dose: 60.0 mg/kg/injection, schedule: Q01DX005 (ip), vehicle: Klucel (hydroxypropylcellulose) (HPC) 90 % of control | dose: 120.0 mg/kg/injection, schedule: Q01DX005 (ip), vehicle: Klucel (hydroxypropylcellulose) (HPC) 86 % of control

CCN(CC)CCCNC(=O)c1noc2cc([N+](=O)[O-])ccc12
inactive: dose: 12.5 mg/kg/injection, schedule: Q01DX005 (ip), vehicle: saline 113 % of control | dose: 25.0 mg/kg/injection, schedule: Q01DX005 (ip), vehicle: saline 105 % of control | dose: 50.0 mg/kg/injection, schedule: Q01DX005 (ip), vehicle: saline 99 % of control
